This assay relates to α-SMA expression in MRC5 cells. Kind of assay: inhibition of α-SMA expression in MRC5 cells, image screening method. The class given is cell-based. The note with it: Homo sapiens; MRC5, compound 10 μM, TGF-β1 5 ng/mL, 72 hours, relative to TGF-β1 alone; read-out: Inhibitory activity (α-SMA expression inhibition). The protocol: The ability of the compounds according to the present invention to inhibit the expression of α-SMA, which is a biomarker for pulmonary fibrosis, was evaluated by an image screening method. MRC5 cells were treated with the compound (10 μM) or DMSO under the condition of TGF-31 (5 ng/mL). 72 hours later, the cells were fixed with a 4% formaldehyde solution, treated with a 0.1% Triton-x100 solution, and treated with a 1% BSA solution to mask non-specific binding caused by antibodies. Anti-α-SMA-FITC (Sigma Aldrich) and anti-GAPDH (Cell Signaling Technology) were used as primary antibodies, and anti-mouse-TRITC was used as a secondary antibody. Imaging and analysis of the results were performed using Cytation5_Gen5_Version 3.12.08 (Bio Tek). Relative to the α-SMA expression level when TGF-31 was treated alone, the α-SMA expression level when both the compound and TGF-31 were treated was calculated as the ability of α-SMA expression inhibition of the corresponding compound.
On to `N[C@H]1CCN(C(=O)N2CCN(c3ccc(F)cc3)c3cc(F)ccc32)C1` [Compound 11, (S)-(3-aminopyrrolidin-1-yl)(6-fluoro-4-(4-fluorophenyl)-3,4-dihydroquinoxalin-1(2H)-yl)methanone], for which the inhibition at 10 µM lay in the range of 30 to 50%.

With `O=C(NCC1CCNCC1)N1CCN(C(=O)c2ccccc2)c2ccccc21` [Compound 114, 4-benzoyl-N-(piperidin-4-ylmethyl)-3,4-dihydroquinoxaline-1(2H)-carboxamide], the inhibition at 10 µM fell in the range of 10 to 30%.

For `CN1CCN(C(=O)N2CCN(C3CCCCC3)c3ccccc32)CC1` [Compound 107, (4-cyclohexyl-3,4-dihydroquinoxalin-1(2H)-yl)(4-methylpiperazin-1-yl)methanone], the inhibition at 10 µM is 10 to 30%.

For `CC(C)CN1CC[C@@H](CNC(=O)N2CCN(c3ccc(F)cc3)c3cc(F)ccc32)C1` [Compound 27, (S)-6-fluoro-4-(4-fluorophenyl)-N-((1-isobutylpyrrolidin-3-yl)methyl)-3,4-dihydroquinoxaline-1(2H)-carboxamide], the inhibition at 10 µM is at least 70%.

In the case of `O=C(NC1CNC1)N1CCN(c2ccc(F)cc2)c2cc(F)ccc21` [Compound 41, N-(azetidin-3-yl)-6-fluoro-4-(4-fluorophenyl)-3,4-dihydroquinoxaline-1(2H)-carboxamide], the inhibition at 10 µM lay within 30 to 50%.

Turning to `O=C(NCC1CCNCC1)N1CCN(c2ccc(F)cc2)c2ccccc21` [Compound 62, 4-(4-fluorophenyl)-N-(piperidin-4-ylmethyl)-3,4-dihydroquinoxaline-1(2H)-carboxamide], the inhibition at 10 µM is 30 to 50%.

On to `O=C(NC1COC1)N1CCN(Cc2ccccn2)c2ccccc21` [Compound 99, N-(oxetan-3-yl)-4-(pyridin-2-ylmethyl)-3,4-dihydroquinoxaline-1(2H)-carboxamide], for which the inhibition at 10 µM lay in the range of 30 to 50%.

Consider `CC(C)N1CC[C@@H](CNC(=O)N2CCN(c3ccc(F)cc3)c3ccccc32)C1` [Compound 59, (S)-4-(4-fluorophenyl)-N-((1-isopropylpyrrolidin-3-yl)methyl)-3,4-dihydroquinoxaline-1(2H)-carboxamide], for which the inhibition at 10 µM lay in the range of 30 to 50%.

As for `CC(C)CN1CC(CNC(=O)N2CCN(c3ccc(F)cc3)c3cc(F)ccc32)C1` [Compound 47, 6-fluoro-4-(4-fluorophenyl)-N-((1-isobutylazetidin-3-yl)methyl)-3,4-dihydroquinoxaline-1(2H)-carboxamide], the inhibition at 10 µM was in the range of 50 to 70%.

For the compound `CC(=O)N[C@H]1CCN(C(=O)N2CCN(c3ccc(F)cc3)c3cc(F)ccc32)C1` [Compound 15, (S)-N-(1-(6-fluoro-4-(4-fluorophenyl)-1,2,3,4-tetrahydroquinoxaline-1-carbonyl)pyrrolidin-3-yl)acetamide], the inhibition at 10 µM lay within 10 to 30%.

With `CC(C)N1CCC(NC(=O)N2CCN(c3ccc(F)cc3)c3cc(F)ccc32)CC1` [Compound 31, 6-fluoro-4-(4-fluorophenyl)-N-(1-isopropylpiperidin-4-yl)-3,4-dihydroquinoxaline-1(2H)-carboxamide], the inhibition at 10 µM lay within 50 to 70%.

Regarding `O=C(NCC1CC1)N1CCN(c2ccc(F)cc2)c2cc(F)ccc21` [Compound 28, N-(cyclopropylmethyl)-6-fluoro-4-(4-fluorophenyl)-3,4-dihydroquinoxaline-1(2H)-carboxamide], the inhibition at 10 µM was 10 to 30%.

`O=C(N1CCCC1)N1CCN(c2ccccc2Cl)c2ccccc21` [Compound 67]: the inhibition at 10 µM was in the range of 30 to 50%.

For `CN1CC[C@@H](CNC(=O)N2CCN(c3ccc(F)cc3)c3cc(F)ccc32)C1` [Compound 25, (S)-6-fluoro-4-(4-fluorophenyl)-N-((1-methylpyrrolidin-3-yl)methyl)-3,4-dihydroquinoxaline-1(2H)-carboxamide], the inhibition at 10 µM was 50 to 70%.

In the case of `O=C(NCC1CCOCC1)N1CCN(Cc2ccccn2)c2ccccc21` [Compound 101, 4-(pyridin-2-ylmethyl)-N-((tetrahydro-2H-pyran-4-yl)methyl)-3,4-dihydroquinoxaline-1(2H)-carboxamide], the inhibition at 10 µM was in the range of 30 to 50%.

Take `O=C(NC[C@H]1CCCN1)N1CCN(c2ccc(F)cc2)c2ccccc21` [Compound 57, (R)-4-(4-fluorophenyl)-N-(pyrrolidin-2-ylmethyl)-3,4-dihydroquinoxaline-1(2H)-carboxamide]: the inhibition at 10 µM fell in the range of 30 to 50%.

With `O=C(NCC1CCNCC1)N1CCN(c2ccc(F)cc2)c2cc(F)ccc21` [Compound 33, 6-fluoro-4-(4-fluorophenyl)-N-(piperidin-4-ylmethyl)-3,4-dihydroquinoxaline-1(2H)-carboxamide], the inhibition at 10 µM was 50 to 70%.

As for `O=C(NC[C@H]1CCNC1)N1CCN(c2ccccn2)c2ccccc21` [Compound 71, (S)-4-(pyridin-2-yl)-N-(pyrrolidin-3-ylmethyl)-3,4-dihydroquinoxaline-1(2H)-carboxamide], the inhibition at 10 µM lay within 30 to 50%.

For `CC(C)N1CC[C@@H](NC(=O)N2CCN(c3ccc(F)cc3)c3cc(F)ccc32)C1` [Compound 3, (R)-6-fluoro-4-(4-fluorophenyl)-N-(1-isopropylpyrrolidin-3-yl)-3,4-dihydroquinoxaline-1(2H)-carboxamide], the inhibition at 10 µM is at least 70%.

With `CC(C)N1CCC(CNC(=O)N2CCN(c3ccc(F)cc3)c3ccccc32)CC1` [Compound 63, 4-(4-fluorophenyl)-N-((1-isopropylpiperidin-4-yl)methyl)-3,4-dihydroquinoxaline-1(2H)-carboxamide], the inhibition at 10 µM fell in the range of 30 to 50%.

With `O=C(NC1CCNCC1)N1CCN(c2ccc(F)cc2)c2cc(F)ccc21` [Compound 29, 6-fluoro-4-(4-fluorophenyl)-N-(piperidin-4-yl)-3,4-dihydroquinoxaline-1(2H)-carboxamide], the inhibition at 10 µM fell in the range of 50 to 70%.

Regarding `O=C(NC[C@H]1CCCN1)N1CCN(c2ccc(F)cc2)c2cc(F)ccc21` [Compound 21, (R)-6-fluoro-4-(4-fluorophenyl)-N-(pyrrolidin-2-ylmethyl)-3,4-dihydroquinoxaline-1(2H)-carboxamide], the inhibition at 10 µM was at least 70%.

For the compound `CC(C)CN1CCC(NC(=O)N2CCN(c3cnccn3)c3ccccc32)CC1` [Compound 82, N-(1-isobutylpiperidin-4-yl)-4-(pyrazin-2-yl)-3,4-dihydroquinoxaline-1(2H)-carboxamide], the inhibition at 10 µM was 10 to 30%.

Turning to `CC(=O)N1CC[C@@H](NC(=O)N2CCN(c3ccccn3)c3ccccc32)C1` [Compound 70, (R)-N-(1-acetylpyrrolidin-3-yl)-4-(pyridin-2-yl)-3,4-dihydroquinoxaline-1(2H)-carboxamide], the inhibition at 10 µM was in the range of 10 to 30%.

As to `CC(C)CN1CC[C@H](CNC(=O)N2CCN(c3ccc(F)cc3)c3ccccc32)C1` [Compound 56, (R)-4-(4-fluorophenyl)-N-((1-isobutylpyrrolidin-3-yl)methyl)-3,4-dihydroquinoxaline-1(2H)-carboxamide], the inhibition at 10 µM is 30 to 50%.

With `CC(C)N1CC[C@H](NC(=O)N2CCN(c3ccccn3)c3ccccc32)C1` [Compound 69, (S)-N-(1-isopropylpyrrolidin-3-yl)-4-(pyridin-2-yl)-3,4-dihydroquinoxaline-1(2H)-carboxamide], the inhibition at 10 µM was 10 to 30%.

Consider `CC(C)(C)CC(=O)N1CCN(C(=O)NCC2CCNCC2)c2ccccc21` [Compound 130, 4-(3,3-dimethylbutanoyl)-N-(piperidin-4-ylmethyl)-3,4-dihydroquinoxaline-1(2H)-carboxamide], for which the inhibition at 10 µM was 10 to 30%.

`N#Cc1ccc(N2CCN(C(=O)NC[C@H]3CCNC3)c3ccccc32)cc1` [Compound 79, (S)-4-(4-cyanophenyl)-N-(pyrrolidin-3-ylmethyl)-3,4-dihydroquinoxaline-1(2H)-carboxamide]: the inhibition at 10 µM lay within 10 to 30%.

On to `CC(C)CN[C@H]1CCN(C(=O)N2CCN(c3ccc(F)cc3)c3cc(F)ccc32)C1` [Compound 13, (S)-(6-fluoro-4-(4-fluorophenyl)-3,4-dihydroquinoxalin-1(2H)-yl)(3-(isobutylamino)pyrrolidin-1-yl)methanone], for which the inhibition at 10 µM was at least 70%.

Regarding `CN1CC(CNC(=O)N2CCN(c3ccc(F)cc3)c3cc(F)ccc32)C1` [Compound 45, 6-fluoro-4-(4-fluorophenyl)-N-((1-methylazetidin-3-yl)methyl)-3,4-dihydroquinoxaline-1(2H)-carboxamide], the inhibition at 10 µM is 50 to 70%.

On to `CC(C)CN1CC(CNC(=O)N2CCN(c3ccc(F)cc3)c3ccccc32)C1` [Compound 61, 4-(4-fluorophenyl)-N-((1-isobutylazetidin-3-yl)methyl)-3,4-dihydroquinoxaline-1(2H)-carboxamide], for which the inhibition at 10 µM is 50 to 70%.

For the compound `O=C(N1CCCC1)N1CCN(C2CCCCC2)c2ccccc21` [Compound 108, (4-cyclohexyl-3,4-dihydroquinoxalin-1(2H)-yl)(pyrrolidin-1-yl)methanone], the inhibition at 10 µM was 30 to 50%.

Turning to `CC(C)N1CC[C@H](NC(=O)N2CCN(c3cnccn3)c3ccccc32)C1` [Compound 81, (S)-N-(1-isopropylpyrrolidin-3-yl)-4-(pyrazin-2-yl)-3,4-dihydroquinoxaline-1(2H)-carboxamide], the inhibition at 10 µM is 10 to 30%.

Take `CN1CC[C@@H](NC(=O)N2CCN(c3ccc(F)cc3)c3cc(F)ccc32)C1` [Compound 2, (R)-6-fluoro-4-(4-fluorophenyl)-N-(1-methylpyrrolidin-3-yl)-3,4-dihydroquinoxaline-1(2H)-carboxamide]: the inhibition at 10 µM is at least 70%.

By inhibition is commonly meant the share of the control response that was lost under treatment.

For the origin of these results see US20260265189A1, “NOVEL COMPOUND, AND PHARMACEUTICAL COMPOSITION COMPRISING SAME AS ACTIVE INGREDIENT” (SAPIENSBIO INC., priority 2022, published 2026).
